Earlier results in US20120078160A1, “METHOD AND APPARATUS FOR CANCER THERAPY” (Gradiant Research, LLC, priority 2009, published 2012).

In the case of O=c1[nH]cc(F)c(=O)[nH]1 [5FU, 5-fluorouracil], the pKa is listed as 7.93 and the “Koct, octanol water partition coefficient” value (pH 7.4) is listed as 0.129.
